For orientation: IC50 means the midpoint of a concentration-inhibition curve. Read a high IC50 as weaker potency.

Results on 34 molecules are retold here after patent publication US9637491B2, “Pyrazolo[4,3-D]pyrimidines as kinase inhibitors” (Origenis GmbH, priority 2012, dated 2017).

Structures are written as SMILES.

For the assay, the target named is T1, SYK kinase (Homo sapiens, UniProt P43405).
T1 construct: purchased Invitrogen, Carlsbad
Nature of the assay: SYK assay (OMNIA Kinase Assay, Invitrogen). The assay is classed as biochemical. Particulars: SYK Activities; 1 mM ATP, 10 μM Omnia Peptide Substrate Tyr 7, 30° C. An outline of the steps:
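Continuous-read fluorescence kinase assay: SOX-labelled Tyr 7 peptide (10 μM) with 1 mM ATP and 0.2 mM DTT, 30° C, reaction started by adding SYK. Fluorescence (ex 360/em 485 nm) read every 30 s for 30 min. IC50 from sigmoidal fit of reaction velocity versus inhibitor concentration.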
The molecule `OC1CCN(c2ccc(Nc3nc(-c4ccco4)nc4cn[nH]c34)cc2)CC1` [Example 450, 1-(4-((5-(furan-2-yl)-1H-pyrazolo[4,3-d]pyrimidin-7-yl)amino)phenyl)piperidin-4-ol] had an IC50 of 10 to 100 nM.

For the molecule `CC(C)(O)Cn1cc(Nc2nc(-c3ccco3)nc3cn[nH]c23)cn1` [Example 451, 1-(4-((5-(furan-2-yl)-1H-pyrazolo[4,3-d]pyrimidin-7-yl)amino)-1H-pyrazol-1-yl)-2-methylpropan-2-ol], the IC50 was in the range of 10 to 100 nM.

On to `CN(C)C(=O)Cn1cc(Nc2nc(-c3ccco3)nc3cn[nH]c23)cn1` [Example 452, 2-(4-((5-(furan-2-yl)-1H-pyrazolo[4,3-d]pyrimidin-7-yl)amino)-1H-pyrazol-1-yl)-N,N-dimethylacetamide], for which the IC50 lay within 100 to 1000 nM.

Molecule `CC(C)(C)OC(=O)N1CCC(n2cc(Nc3nc(-c4ccco4)nc4cn[nH]c34)cn2)C1` (stereo not shown) [Example 453, tert-butyl 3-(4-((5-(furan-2-yl)-1H-pyrazolo[4,3-d]pyrimidin-7-yl)amino)-1H-pyrazol-1-yl)pyrrolidine-1-carboxylate] yielded an IC50 of 100 to 1000 nM.

For the molecule `COCC(COC)n1cc(Nc2nc(-c3ccco3)nc3cn[nH]c23)cn1` [Example 455, N-(1-(1,3-dimethoxypropan-2-yl)-1H-pyrazol-4-yl)-5-(furan-2-yl)-1H-pyrazolo[4,3-d]pyrimidin-7-amine], the IC50 was in the range of 100 to 1000 nM.

Consider `COCCn1cc(Nc2nc(-c3nc4ccccc4s3)nc3cn[nH]c23)cn1` [Example 456, 5-(benzo[d]thiazol-2-yl)-N-(1-(2-methoxyethyl)-1H-pyrazol-4-yl)-1H-pyrazolo[4,3-d]pyrimidin-7-amine], for which the IC50 is less than 10 nM.

Take `CC(=O)N1CCC(n2cc(Nc3nc(-c4nc5ccccc5s4)nc4cn[nH]c34)cn2)CC1` [Example 458, 1-(4-(4-((5-(benzo[d]thiazol-2-yl)-1H-pyrazolo[4,3-d]pyrimidin-7-yl)amino)-1H-pyrazol-1-yl)piperidin-1-yl)ethan-1-one]: the IC50 was less than 10 nM.

With `CN1CCC(n2cc(Nc3nc(-c4nc5ccccc5s4)nc4cn[nH]c34)cn2)CC1` [Example 459, 5-(benzo[d]thiazol-2-yl)-N-(1-(1-methylpiperidin-4-yl)-1H-pyrazol-4-yl)-1H-pyrazolo[4,3-d]pyrimidin-7-amine], the IC50 is 10 to 100 nM.

Turning to `c1ccc(Cn2cc(-c3nc(Nc4ccc(N5CCOCC5)cc4)c4[nH]ncc4n3)cn2)cc1` [Example 460, 5-(1-benzyl-1H-pyrazol-4-yl)-N-(4-morpholinophenyl)-1H-pyrazolo[4,3-d]pyrimidin-7-amine], the IC50 lay in the range of 10 to 100 nM.

`CN(C)C(=O)Cn1cc(Nc2nc(C3CCC3)nc3cn[nH]c23)cn1` [Example 461, 2-(4-((5-cyclobutyl-1H-pyrazolo[4,3-d]pyrimidin-7-yl)amino)-1H-pyrazol-1-yl)-N,N-dimethylacetamide]: the half-maximal inhibitory concentration (IC50) is 100 to 1000 nM.

Take `c1nn(C2CCNC2)cc1Nc1nc(C2CCC2)nc2cn[nH]c12` (stereo not shown) [Example 462, 5-cyclobutyl-N-(1-(pyrrolidin-3-yl)-1H-pyrazol-4-yl)-1H-pyrazolo[4,3-d]pyrimidin-7-amine]: the IC50 was less than 10 nM.

Regarding `COCC(COC)n1cc(Nc2nc(C3CCC3)nc3cn[nH]c23)cn1` [Example 463, 5-cyclobutyl-N-(1-(1,3-dimethoxypropan-2-yl)-1H-pyrazol-4-yl)-1H-pyrazolo[4,3-d]pyrimidin-7-amine], the IC50 lay within 100 to 1000 nM.

For `c1cncc(-c2cccc(-c3nc(Nc4cnn(C5CCNC5)c4)c4[nH]ncc4n3)c2)c1` (stereo not shown) [Example 465, 5-(3-(pyridin-3-yl)phenyl)-N-(1-(pyrrolidin-3-yl)-1H-pyrazol-4-yl)-1H-pyrazolo[4,3-d]pyrimidin-7-amine], the IC50 was 10 to 100 nM.

In turn, `CN(C)C(=O)Cn1cc(Nc2nc(-c3cccc(-c4cccnc4)c3)nc3cn[nH]c23)cn1` [Example 466, N,N-dimethyl-2-(4-((5-(3-(pyridin-3-yl)phenyl)-1H-pyrazolo[4,3-d]pyrimidin-7-yl)amino)-1H-pyrazol-1-yl)acetamide] registered an IC50 of 10 to 100 nM.

Molecule `COCC(COC)n1cc(Nc2nc(-c3cccc(-c4cccnc4)c3)nc3cn[nH]c23)cn1` [Example 467, N-(1-(1,3-dimethoxypropan-2-yl)-1H-pyrazol-4-yl)-5-(3-(pyridin-3-yl)phenyl)-1H-pyrazolo[4,3-d]pyrimidin-7-amine] had an IC50 of 100 to 1000 nM.

Molecule `CC(C)(C)N1CCC(n2cc(Nc3nc(-c4ccc5cn[nH]c5c4)nc4cn[nH]c34)cn2)CC1` [Example 468, N-(1-(1-(tert-butyl)piperidin-4-yl)-1H-pyrazol-4-yl)-5-(1H-indazol-6-yl)-1H-pyrazolo[4,3-d]pyrimidin-7-amine] had an IC50 of less than 10 nM.

With `CC(C)C(C)n1cc(Nc2nc(-c3ccc4cn[nH]c4c3)nc3cn[nH]c23)cn1` (stereo not shown) [Example 469, 5-(1H-indazol-6-yl)-N-(1-(3-methylbutan-2-yl)-1H-pyrazol-4-yl)-1H-pyrazolo[4,3-d]pyrimidin-7-amine], the IC50 was in the range of 10 to 100 nM.

Regarding `CN1C(=O)COc2ccc(Nc3nc(-c4ccc5cn[nH]c5c4)nc4cn[nH]c34)cc21` [Example 470, 6-((5-(1H-indazol-6-yl)-1H-pyrazolo[4,3-d]pyrimidin-7-yl)amino)-4-methyl-2H-benzo[b][1,4]oxazin-3(4H)-one], the IC50 is 100 to 1000 nM.

In turn, `c1ccc(-n2cc(Nc3nc(-c4ccc5cn[nH]c5c4)nc4cn[nH]c34)cn2)nc1` [Example 472, 5-(1H-indazol-6-yl)-N-(1-(pyridin-2-yl)-1H-pyrazol-4-yl)-1H-pyrazolo[4,3-d]pyrimidin-7-amine] registered an IC50 of 100 to 1000 nM.

In turn, `c1nn(C2CCOCC2)cc1Nc1nc(C2C3CCCCC32)nc2cn[nH]c12` (stereo not shown) [Example 473, 5-(bicyclo[4.1.0]heptan-7-yl)-N-(1-(tetrahydro-2H-pyran-4-yl)-1H-pyrazol-4-yl)-1H-pyrazolo[4,3-d]pyrimidin-7-amine] returned an IC50 of 100 to 1000 nM.

With `c1nn(C2CCNC2)cc1Nc1nc(C2C3CCCCC32)nc2cn[nH]c12` (stereo not shown) [Example 474, 5-(bicyclo[4.1.0]heptan-7-yl)-N-(1-(pyrrolidin-3-yl)-1H-pyrazol-4-yl)-1H-pyrazolo[4,3-d]pyrimidin-7-amine], the IC50 was in the range of 100 to 1000 nM.

`COc1cc(Nc2nc(C3C4CCCCC43)nc3cn[nH]c23)ccc1N1CCOCC1` (stereo not shown) [Example 475, 5-(bicyclo[4.1.0]heptan-7-yl)-N-(3-methoxy-4-morpholinophenyl)-1H-pyrazolo[4,3-d]pyrimidin-7-amine] came in with an IC50 of 100 to 1000 nM.

On to `OCCn1cc(Nc2nc(-c3ccc4cn[nH]c4c3)nc3cn[nH]c23)cn1` [Example 476, 2-(4-((5-(1H-indazol-6-yl)-1H-pyrazolo[4,3-d]pyrimidin-7-yl)amino)-1H-pyrazol-1-yl)ethan-1-ol], for which the IC50 is 10 to 100 nM.

The molecule `CC(c1ccccc1)n1cc(Nc2nc(-c3ccc4cn[nH]c4c3)nc3cn[nH]c23)cn1` (stereo not shown) [Example 477, 5-(1H-indazol-6-yl)-N-(1-(1-phenylethyl)-1H-pyrazol-4-yl)-1H-pyrazolo[4,3-d]pyrimidin-7-amine] had an IC50 of 100 to 1000 nM.

On to `COc1cc(Nc2nc(-c3c(C)cccc3F)nc3cn[nH]c23)ccc1N1CCOCC1` [Example 481, 5-(2-fluoro-6-methylphenyl)-N-(3-methoxy-4-morpholinophenyl)-1H-pyrazolo[4,3-d]pyrimidin-7-amine], for which the IC50 lay in the range of 100 to 1000 nM.

On to `CC(C)C(C)n1cc(Nc2nc(-c3ccoc3)nc3cn[nH]c23)cn1` (stereo not shown) [Example 482, 5-(furan-3-yl)-N-(1-(3-methylbutan-2-yl)-1H-pyrazol-4-yl)-1H-pyrazolo[4,3-d]pyrimidin-7-amine], for which the IC50 is 10 to 100 nM.

`c1cc(-c2nc(Nc3cnn(C4CCCOC4)c3)c3[nH]ncc3n2)co1` (stereo not shown) [Example 483, 5-(furan-3-yl)-N-(1-(tetrahydro-2H-pyran-3-yl)-1H-pyrazol-4-yl)-1H-pyrazolo[4,3-d]pyrimidin-7-amine] showed an IC50 of 10 to 100 nM.

The molecule `c1ccc(-n2cc(Nc3nc(-c4ccoc4)nc4cn[nH]c34)cn2)nc1` [Example 484, 5-(furan-3-yl)-N-(1-(pyridin-2-yl)-1H-pyrazol-4-yl)-1H-pyrazolo[4,3-d]pyrimidin-7-amine] registered an IC50 of 100 to 1000 nM.

Regarding `CCN1C(=O)COc2ccc(Nc3nc(-c4ccoc4)nc4cn[nH]c34)cc21` [Example 485, 4-ethyl-6-((5-(furan-3-yl)-1H-pyrazolo[4,3-d]pyrimidin-7-yl)amino)-2H-benzo[b][1,4]oxazin-3(4H)-one], the IC50 lay in the range of 100 to 1000 nM.

Consider `CC(C(=O)O)n1cc(Nc2nc(-c3ccoc3)nc3cn[nH]c23)cn1` (stereo not shown) [Example 486, 2-(4-((5-(furan-3-yl)-1H-pyrazolo[4,3-d]pyrimidin-7-yl)amino)-1H-pyrazol-1-yl)propanoic acid], for which the IC50 lay within 100 to 1000 nM.

`CC(c1ccccc1)n1cc(Nc2nc(-c3ccoc3)nc3cn[nH]c23)cn1` (stereo not shown) [Example 487, 5-(furan-3-yl)-N-(1-(1-phenylethyl)-1H-pyrazol-4-yl)-1H-pyrazolo[4,3-d]pyrimidin-7-amine] had an IC50 of 100 to 1000 nM.

Molecule `CN1C(=O)COc2ccc(Nc3nc(-c4ccoc4)nc4cn[nH]c34)cc21` [Example 488, 6-((5-(furan-3-yl)-1H-pyrazolo[4,3-d]pyrimidin-7-yl)amino)-4-methyl-2H-benzo[b][1,4]oxazin-3(4H)-one] yielded an IC50 of 10 to 100 nM.

`CC(C(=O)O)n1cc(Nc2nc(-c3ccc4cn[nH]c4c3)nc3cn[nH]c23)cn1` (stereo not shown) [Example 493, 2-(4-((5-(1H-indazol-6-yl)-1H-pyrazolo[4,3-d]pyrimidin-7-yl)amino)-1H-pyrazol-1-yl)propanoic acid] displayed an IC50 of 100 to 1000 nM.

As for `CC(C)(C)N1CCC(n2cc(Nc3nc(-c4nc5c(s4)CCCC5)nc4cn[nH]c34)cn2)CC1` [Example 495, N-(1-(1-(tert-butyl)piperidin-4-yl)-1H-pyrazol-4-yl)-5-(4,5,6,7-tetrahydrobenzo[d]thiazol-2-yl)-1H-pyrazolo[4,3-d]pyrimidin-7-amine], the IC50 was 10 to 100 nM.
